ChEMBL document CHEMBL3739342, “Varitatin A, a Highly Modified Fatty Acid Amide from Penicillium variabile Cultured with a DNA Methyltransferase Inhibitor” (J Nat Prod, 2015)
pIC50: −log10 of the molar value. Activity calls are given as the source filed them. No cut-off for these calls is given here.

Tests used:
[1] = Cytotoxicity against human HCT116 cells by SRB assay; format: functional, cell-based; details: HCT-116
Homo sapiens = species on record: Homo sapiens; test: Inhibition of PTK (unknown origin) at 1 uM by ELISA
[2] = molecular target: Receptor tyrosine-protein kinase erbB-4 (Homo sapiens) (UniProt Q15303); test: Inhibition of ErbB4 (unknown origin) at 1 uM by ELISA
[3] = molecular target: Platelet-derived growth factor receptor beta (Homo sapiens) (UniProt P09619); test: Inhibition of PDGFR-beta (unknown origin) at 1 uM by ELISA
Platelet-derived growth factor receptor beta (Homo sapiens), sequence (P09619 whole entry): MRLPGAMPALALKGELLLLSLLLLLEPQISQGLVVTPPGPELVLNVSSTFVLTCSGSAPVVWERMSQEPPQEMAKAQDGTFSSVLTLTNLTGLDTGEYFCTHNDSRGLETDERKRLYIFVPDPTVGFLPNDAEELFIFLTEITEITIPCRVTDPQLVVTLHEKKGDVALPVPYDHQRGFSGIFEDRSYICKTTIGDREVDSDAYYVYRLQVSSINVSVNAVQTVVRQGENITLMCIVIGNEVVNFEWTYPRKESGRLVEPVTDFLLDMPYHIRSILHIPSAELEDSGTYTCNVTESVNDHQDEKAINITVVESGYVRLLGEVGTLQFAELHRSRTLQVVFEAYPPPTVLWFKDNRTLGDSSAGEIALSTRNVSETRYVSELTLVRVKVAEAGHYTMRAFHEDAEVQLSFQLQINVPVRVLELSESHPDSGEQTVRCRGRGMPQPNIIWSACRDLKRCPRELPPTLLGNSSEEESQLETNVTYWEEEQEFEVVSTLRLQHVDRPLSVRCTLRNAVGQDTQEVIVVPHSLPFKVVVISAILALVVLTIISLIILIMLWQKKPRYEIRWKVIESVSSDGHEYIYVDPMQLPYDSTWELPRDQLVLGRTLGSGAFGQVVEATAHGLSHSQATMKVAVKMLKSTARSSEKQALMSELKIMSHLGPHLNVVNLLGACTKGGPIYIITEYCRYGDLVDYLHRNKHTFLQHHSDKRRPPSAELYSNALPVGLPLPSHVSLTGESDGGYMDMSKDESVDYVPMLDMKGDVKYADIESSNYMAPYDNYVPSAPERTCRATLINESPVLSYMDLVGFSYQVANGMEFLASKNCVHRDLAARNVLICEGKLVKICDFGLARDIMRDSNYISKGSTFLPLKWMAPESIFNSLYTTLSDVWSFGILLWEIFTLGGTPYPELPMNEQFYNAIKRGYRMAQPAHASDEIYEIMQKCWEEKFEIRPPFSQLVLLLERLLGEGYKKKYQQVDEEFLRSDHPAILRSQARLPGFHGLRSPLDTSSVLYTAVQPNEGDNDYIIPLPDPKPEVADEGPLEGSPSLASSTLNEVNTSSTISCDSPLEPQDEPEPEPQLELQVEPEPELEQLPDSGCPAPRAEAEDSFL

Receptor tyrosine-protein kinase erbB-4 (Homo sapiens), sequence (Q15303 whole entry): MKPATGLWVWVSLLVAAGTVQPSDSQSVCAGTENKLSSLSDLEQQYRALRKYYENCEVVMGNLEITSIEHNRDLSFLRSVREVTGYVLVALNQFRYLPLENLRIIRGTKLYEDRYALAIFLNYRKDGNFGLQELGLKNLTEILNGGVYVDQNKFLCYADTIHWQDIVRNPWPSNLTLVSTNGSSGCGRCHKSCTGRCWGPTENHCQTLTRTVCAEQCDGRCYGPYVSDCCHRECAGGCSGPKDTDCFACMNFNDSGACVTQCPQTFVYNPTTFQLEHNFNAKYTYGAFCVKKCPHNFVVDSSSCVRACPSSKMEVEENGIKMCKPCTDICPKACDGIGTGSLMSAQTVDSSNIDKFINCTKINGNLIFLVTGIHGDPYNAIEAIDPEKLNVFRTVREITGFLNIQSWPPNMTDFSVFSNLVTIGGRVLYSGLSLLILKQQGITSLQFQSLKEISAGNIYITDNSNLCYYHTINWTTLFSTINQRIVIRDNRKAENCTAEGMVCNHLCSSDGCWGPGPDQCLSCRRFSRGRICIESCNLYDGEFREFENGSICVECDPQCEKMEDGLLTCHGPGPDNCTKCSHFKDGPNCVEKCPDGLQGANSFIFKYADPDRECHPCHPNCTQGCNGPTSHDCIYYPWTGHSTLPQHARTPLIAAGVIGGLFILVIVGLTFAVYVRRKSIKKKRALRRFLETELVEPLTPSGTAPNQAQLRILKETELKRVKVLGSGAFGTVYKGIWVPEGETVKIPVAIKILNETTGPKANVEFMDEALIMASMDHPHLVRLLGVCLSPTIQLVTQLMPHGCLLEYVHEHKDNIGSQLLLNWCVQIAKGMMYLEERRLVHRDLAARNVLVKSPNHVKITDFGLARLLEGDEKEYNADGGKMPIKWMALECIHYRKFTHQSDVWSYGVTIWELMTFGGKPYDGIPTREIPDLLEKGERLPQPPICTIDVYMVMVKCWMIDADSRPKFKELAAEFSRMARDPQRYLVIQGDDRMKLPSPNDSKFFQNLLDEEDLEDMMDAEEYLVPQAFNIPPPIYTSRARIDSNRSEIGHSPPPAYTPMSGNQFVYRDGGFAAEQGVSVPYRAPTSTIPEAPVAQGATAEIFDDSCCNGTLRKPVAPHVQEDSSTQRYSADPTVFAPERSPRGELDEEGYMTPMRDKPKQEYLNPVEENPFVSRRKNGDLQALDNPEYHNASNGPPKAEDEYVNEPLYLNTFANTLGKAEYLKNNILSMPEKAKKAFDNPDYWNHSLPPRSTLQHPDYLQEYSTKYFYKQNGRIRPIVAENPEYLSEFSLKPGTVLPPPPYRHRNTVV

inhibition (Homo sapiens) | inhibition [2] [%] | inhibition [3] [%] | SMILES | pIC50 [1]
Active | 40 | 50 | CC[C@@H](C)/C=C/CCCC/C=C/C=C/C=C/C(=O)N[C@@H]1CO[C@@]2(O)C=C[C@@H](Cl)[C@H](O)[C@@]2(O)C1 | 5.55
– | – | – | COc1cccc2c1C(=O)c1c(O)c3c(c(O)c1C2=O)C[C@@](O)(C(=O)CO)C[C@@H]3O[C@H]1C[C@H](N)[C@H](O)[C@H](C)O1 [DOXORUBICIN] | 6.70
